Data from patent US20100016435A1, “HYBRID MOLECULES HAVING MIXED VITAMIN D RECEPTOR AGONISM AND HISTONE DEACETYLASE INHIBITORY PROPERTIES” (McGill University, priority 2006, published 2010).

Columns and labels:
SCC4 cells [1] = assay: Acidic β-galactosidase activity (marker of autophagy), X-Gal staining and 620 nm measurement; assay type: cell-based, human; details: for acidic β-galactosidase staining (X-Gal, pH 4.0), cytochemical: qualitative, FIG. 10A
Description: FIG. 10 is an illustration of the effects of 1, 3, 1+3 and 6 on the induction of acidic β-galactosidase activity, a marker of autophagy (A); FIG. 10 is an illustration of the effects 1, 3, 1+3 and 6 on the levels of β-galactosidase expression as obtained by measuring the indigo cleavage product of X-Gal at 620 nm (B).
Since it was observed that treatment with 1 could enhance cell death by autophagy (ref. 26), the effects of different treatments on the induction of acidic β-galactosidase activity, a marker of autophagy (FIG. 10A) was tested.

SCC25 cells [2] = details: cited from earlier work
histone H4 = assay: Histone H4 acetylation, Western blot; assay type: cell-based, human; details: SCC4 cells, 6 h
Description: (§1) FIG. 4 is an illustration of the HDAC inhibitory activity of 3 in the SCC4 cell line. FIG. 4A is an illustration of a western blot of nuclear and cytoplasmic extracts of SCC4 cells treated with vehicle (−), 1, or 3 alone or in combination, as indicated. The 55 kDa band corresponds to the molecular weight of tubulin. FIG. 4B illustrates a western blot probed with an antibody directed against acetylated histone H4 (AcH4) showing the effects of the treatments described in A on acetylation of histone H4. FIG. 4C illustrates western blots of the effects of treatments described in A on levels of total alpha-tubulin (left) and acetylated alpha-tubulin (right).
(§2) In preliminary experiments, TSA-inducible protein acetylation was analyzed in nuclear and cytoplasmic extracts of SCC4 cells treated for 6 h with 1, 3, or 1 and 3 and subsequently probed by Western blotting for protein acetylation using an anti-acetyllysine antibody. […] Effects of 3 on histone acetylation specifically, were confirmed by probing for acetylation of histone H4 (FIG. 4B). […] However, it was not clear whether this corresponded to enhanced expression or acetylation. […] This was confirmed by probing cytoplasmic fractions with an antibody that recognized α-tubulin (FIG. 4C). Calcitriol (1) had no effect on the acetylation of α-tubulin, and none of the treatments had any substantial effect on total α-tubulin expression (FIG. 4C).

SCC4 cells [3] = assay: Antiproliferative activity in SCC4 cells
Procedure: Tissue culture media was changed daily and fresh 1, 6 or vehicle were added.

SCC25 cells [4] = assay: Antiproliferative activity in SCC25 cells; assay type: cell-based; details: 1 at 1 nM or 100 nM; 3 15 nM; combination 3 with 100 nM 1; FIG. 7B
Description: FIG. 7 is an illustration of the antiproliferative activities of 1 and 3, individually or in combination, in SCC4 cells (A) or in SCC25 cells (B) at the concentrations indicated.

SCC4 cells [5] = assay: Immunocytochemical and morphological analysis (mitotic catastrophe); assay type: cell-based, human
Description: FIG. 12 is an illustration of the immunocytochemical analysis of the effects of 1, 3, or 1 and 3 combined on SCC4 cells (A). […] Both phenotypes are characteristics of mitotic catastrophe. The lower panels (B) show cytoplasmic bridges between SCC4 cells treated with 1 and 3, consistent with the formation of the tubulin bridges seen above in A.
Assembly into microtubules is regulated by acetylation. […] Previous studies have shown that microtubule stabilizing agents can induce mitotic catastrophe (ref. 30). […] The formation of intercellular microtubular structures was consistent with observations in the light microscope of numerous intercellular bridges in cells treated with both 1 and 3 (FIG. 12B, arrows), but not in other treatment groups (not shown).

SCC4 cells [6] = assay: Protein acetylation in nuclear and cytoplasmic extracts, Western blot with anti-acetyllysine antibody; assay type: cell-based, human; details: 6 h
Description: as §1, §2

α-tubulin = assay: α-Tubulin acetylation in SCC4 cells, Western blot; assay type: cell-based, human; details: for levels of acetylated alpha-tubulin normalized for total alpha-tubulin: 3 15 nM, 36 or 39 10^−6 or 10^−7M, 6 h or 24 h, FIG. 6C
Description: as §1
FIG. 6 is a comparison of the HDAC inhibitory activities of 1, 3, 6, 36 or 39 as assessed by their effects on acetylation of alpha-tubulin. In A, SCC4 cells were incubated with vehicle or compound 1 (10^−6M), 3 (15 nM), 6 (10^−6M) and 36 (10^−6M), as indicated for 6 h and protein extracts were probed for total α-tubulin (Tub.) or acetylated α-tubulin (AcTub.) by Western blotting. Blots for acetylated alpha-tubulin and total alpha-tubulin are shown. In B, SCC4 cells were incubated with vehicle or compound 3 (15 nM), 6 (10^−6M) or 36 (10^−6M) as indicated for 6 h or 24 h and protein extracts were probed for acetylated α-tubulin (AcTub.) by Western blotting. In C, SCC4 cells were incubated with vehicle or compounds 3 (15 nM), 36 (10^−6 or 10^−7M) or 39 (10^−6 or 10^−7M) as indicated for 6 h or 24 h and protein extracts were probed for total α-tubulin (tub.) or acetylated α-tubulin (AcTub.) by Western blotting.
as §2
SCC4 cells were incubated with vehicle or compound as indicated for 6 h and cytoplasmic protein extracts were probed by Western blotting using a specific antibody for acetylated α-tubulin.

SCC4 cells [7] = assay: Cell cycle distribution by FACS analysis; assay type: cell-based, human; details: 100 nM 1, or 100 nM 1 and 15 nM 3; 72 h
Procedure: FIG. 11 is an illustration of the results obtained by fluorescence-activated cell sorting (FACS) analysis on the distribution of SCC4 cells in the cell cycle following treatment with vehicle (−), 1, or 1 and 3 together at the concentrations indicated.
The combined effects of 1 and 3 on the distribution of SCC4 cells in the cell cycle were assessed by FACS analysis (FIG. 11). Cells were treated with vehicle, 100 nM 1, or a combination of 100 nM 1 and 15 nM 3 for 72 h, as indicated.

SCC4 cells [8] = details: cited from earlier work
human VDR = biological target: T1, human VDR (Homo sapiens, UniProt P11473); assay: Reporter gene assay (VDRE-luciferase) in transiently transfected COS7 cells; assay type: cell-based
T1 construct: expressed in transfected cells; host or cells: COS7
T1 sequence (P11473 1-427): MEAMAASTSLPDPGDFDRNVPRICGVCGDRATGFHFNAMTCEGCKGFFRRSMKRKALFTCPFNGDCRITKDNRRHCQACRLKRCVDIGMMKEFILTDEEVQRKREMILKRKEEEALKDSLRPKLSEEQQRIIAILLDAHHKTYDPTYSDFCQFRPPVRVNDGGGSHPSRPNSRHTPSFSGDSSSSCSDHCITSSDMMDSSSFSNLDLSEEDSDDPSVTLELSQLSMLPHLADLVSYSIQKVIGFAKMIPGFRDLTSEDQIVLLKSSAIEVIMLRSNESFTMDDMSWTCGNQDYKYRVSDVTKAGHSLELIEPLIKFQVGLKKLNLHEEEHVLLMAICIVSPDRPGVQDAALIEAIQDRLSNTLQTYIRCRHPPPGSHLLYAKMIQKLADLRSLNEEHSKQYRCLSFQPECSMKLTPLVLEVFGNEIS
Procedure: FIG. 2 is an illustration of the vitamin D receptor agonist activity of 6 using a reporter gene assay in transiently transfected COS7 cells.
Hybrid molecule 6 was tested for calcitriol agonist activity using a reporter gene assay under standard conditions.^25,26 COS7 cells were transiently co-transfected with a plasmid expression vector for the human VDR, a plasmid vector expressing bacterial β-galactosidase from a constitutively active promoter (as an internal control for transfection efficiency), and a vector containing a luciferase reporter gene, under control of a previously described synthetic promoter composed of three high affinity VDREs (Vitamin D Response Elements) placed immediately upstream of a truncated promoter region from the herpes simplex virus thymidine kinase gene.^25 Cells were left overnight in the presence of DNA and transfection reagent (lipofectamine). The media were changed and cells were incubated in fresh media containing either vehicle (DMSO), 1 (100 nM), 3 (15 nM), 1 and 3 combined (100 nM/15 nM) or 6 (100 nM), and incubated a further 36 h.

HDAC = assay: Colorimetric HDAC assay with nuclear extracts of SCC4 cells; assay type: biochemical, human
Procedure: FIG. 5 is a comparison of the capability of 3 and 6 (20 nM and 200 nM) in blocking deacetylation of a substrate that absorbs at 405 nm in its deacetylated form.
Hybrid molecule 6 was tested for HDAC inhibitory activity using a colorimetric assay as illustrated in FIG. 5. Nuclear extracts of SCC4 cells were incubated with vehicle, 3 or 6 in the presence of substrate for 60 min at 37° C. Following incubation with developer (1 min.), the absorbance was measured at 405 nm.

PC3 = assay: Antiproliferative activity in PC3 prostate cancer cells; assay type: cell-based; details: PC3, data not shown
SCC4 cells [9] = assay: Annexin V staining by FACS (apoptotic cell death); assay type: cell-based, human; details: after pretreatment with UV light
Procedure: (§3) FIG. 9 is an illustration of the effects of 1, 3, 1+3, 6 and 36 administered at the concentrations indicated on cell viability in two models. The viability of MCF-7 breast cancer cells was monitored after 24 h of incubation using a trypan blue dye exclusion assay (A).
(§4) The effect of 1, 3, 1+3, 6 and 36 on cell viability was tested in two models. The viability of MCF-7 breast cancer cells was monitored after 24 h of incubation using a trypan blue dye exclusion assay (FIG. 9A). […] The effects of 100 nM 1, 15 nM 3 (TSA), 1 and 3 combined (100 nM/15 nM) and 100 nM 6 (hybrid molecule) on cell viability were tested by screening for induction of markers of apoptotic cell death. Annexin V staining was screened by FACS analysis as in Tavera-Mendoza et al.^26 While all treatments induced modest increases in annexin V staining, apoptosis could be excluded as the major cause of cell death (FIG. 9B).

Du145 = assay: Antiproliferative activity in Du145 prostate cancer cells; assay type: cell-based; details: Du145, data not shown
[10] = tested on: MCF-7 breast cancer cells; assay: Cell viability, trypan blue dye exclusion assay; assay type: cell-based; details: 24 h; 6 at 10^−7 or 10^−6M versus 1 at 10^−6M or 1 and 3; FIG. 9A
Procedure: as §3, §4

C=C1/C(=C\C=C2/CCC[C@@]3(C)C2CCC3[C@H](C)CCCC(C)(C)O)C[C@@H](O)C[C@@H]1O (stereo partly drawn) [compound 1, 1α,25-Dihydroxyvitamin D3]
acidic β-galactosidase staining (X-Gal, pH 4.0), cytochemical (SCC4 cells [1]): generally enhanced
cell cycle arrest (SCC25 cells [2]): G0/G1 arrest
histone H4 acetylation (histone H4): little effect
SCC4 proliferation (SCC4 cells [3]; 1 nM or 100 nM 1, alone or with 15 nM 3, FIG. 7A): modest effects
SCC25 proliferation / sensitivity (SCC25 cells [4]): relatively more sensitive
cell morphology (SCC4 cells [5]; FIG. 12): did not differ from control cells
induction of mitotic catastrophe (SCC4 cells [5]; SCC4 cells): not 1 or 3 alone
levels of a product of ~70 kDa (SCC4 cells [6]; cytoplasmic extracts): modestly but consistently enhanced
acetylation of low molecular weight nuclear proteins (SCC4 cells [6]; nuclear extracts): no effect
acetylation of α-tubulin (α-tubulin; cytoplasmic fractions, FIG. 4C): no effect
proportion of cells in G1 (SCC4 cells [7]): augmented
proportion of cells in G2/M (SCC4 cells [7]): augmented
proportion of cells in S phase (SCC4 cells [7]): substantially diminished
resistance of SCC4 to antiproliferative effects (SCC4 cells [8]): resistant

C=C1/C(=C\C=C2/CCC[C@@]3(C)C2CCC3[C@H](C)/C=C/C=C/C(O)(CC)CC)C[C@@H](O)C[C@@H]1O (stereo partly shown) [compound 4, EB1089]
expression from the internal control plasmid (β-galactosidase) (human VDR; COS7 cells): modestly enhanced expression

C[C@H](CCCCC(=O)NO)[C@H]1CC[C@H]2/C(=C/C=C3C[C@@H](O)C[C@H](O)C3)CCC[C@]12C [compound 39]
levels of acetylated alpha-tubulin normalized for total alpha-tubulin (α-tubulin): observed only in cells treated with 3

CC(/C=C/C(=O)NO)=C\[C@@H](C)[C@H]1CC[C@H]2/C(=C/C=C3C[C@@H](O)C[C@H](O)C3)CCC[C@]12C [compound 6, (2E,4E,6R)-6-[(1R,3R,7E,17β)-1,3-dihydroxy-9,10secoestra-5,7-dien-17-yl]-N-hydroxy-4-methylhepta-2,4-dienamide]
levels of autophagy (SCC4 cells [1]; cytochemical and quantitative analysis): elevated levels of autophagy
increase in β-galactosidase expression versus 1 or 1+3 (SCC4 cells [1]; indigo cleavage product of X-Gal at 620 nm, FIG. 10B): ~30%
acidic β-galactosidase staining (X-Gal, pH 4.0), cytochemical (SCC4 cells [1]): higher percentage of cells that stained intensely
fold less potent than TSA (3) (HDAC; HDAC inhibition): about 10 fold
inhibiting HDAC activity, compared with 3 (HDAC; equimolar concentrations (20 nM), 60 min at 37° C.): less effective
antiproliferative activity (PC3): similar
annexin V staining versus 3, 1 or 1+3 (SCC4 cells [9]): substantially higher levels of apoptosis
inhibition of SCC4 proliferation (SCC4 cells [3]; 96 h, media and compound changed daily, FIG. 8A): greater efficacy than 1
antiproliferative activity (Du145): similar
tubulin acetylation (α-tubulin; 1 μM, 6 h, FIG. 6A): marked tubulin acetylation
tubulin acetylation (α-tubulin; after 24 h, FIG. 6B): remains elevated
cell death (viability) [10]: markedly more cell death
reporter gene activity (calcitriol agonist activity) (human VDR; COS7, 36 h, 1 100 nM, 3 15 nM, 6 100 nM, not normalized): essentially identical to that of 1

C[C@H](CCCC(=O)NO)[C@H]1CC[C@H]2/C(=C/C=C3C[C@@H](O)C[C@H](O)C3)CCC[C@]12C [compound 36]
levels of acetylated alpha-tubulin normalized for total alpha-tubulin (α-tubulin): observed only in cells treated with 3
tubulin acetylation (α-tubulin; 10^−6 M, 6 or 24 h, FIG. 6B): no effect
